Settings: for molar entropy: 101.33 kPa, Vacuum adiabatic calorimetry

CCCCCCCCCCCCCCCCCC(=O)OCC(COC(=O)CCCCCCCCCCCCCCCCC)OC(=O)CCCCCCCCCCCCCCCCC [glycerol trioctadecanoate]
Settings | Normal melting temperature [°C] | Triple point temperature [K] | molar entropy [J/K/mol]
10 K, Crystal | – | – | 5.349
20 K, Crystal | – | – | 32.09
30 K, Crystal | – | – | 74.88
40 K, Crystal | – | – | 130.16
50 K, Crystal | – | – | 188.99
60 K, Crystal | – | – | 251.4
70 K, Crystal | – | – | 315.58
80 K, Crystal | – | – | 380.66
90 K, Crystal | – | – | 443.96
100 K, Crystal | – | – | 504.58
110 K, Crystal | – | – | 562.52
120 K, Crystal | – | – | 618.69
130 K, Crystal | – | – | 673.07
140 K, Crystal | – | – | 726.56
150 K, Crystal | – | – | 778.26
160 K, Crystal | – | – | 829.97
170 K, Crystal | – | – | 879.89
180 K, Crystal | – | – | 929.81
190 K, Crystal | – | – | 978.84
200 K, Crystal | – | – | 1028.8
210 K, Crystal | – | – | 1077.8
220 K, Crystal | – | – | 1125.9
230 K, Crystal | – | – | 1173.2
240 K, Crystal | – | – | 1219.5
250 K, Crystal | – | – | 1266.8
260 K, Crystal | – | – | 1314
270 K, Crystal | – | – | 1361.3
280 K, Crystal | – | – | 1408.5
290 K, Crystal | – | – | 1456.7
298.15 K, Crystal | – | – | 1495.9
300 K, Crystal | – | – | 1504.8
310 K, Crystal | – | – | 1553.8
320 K, Crystal | – | – | 1603.8
330 K, Crystal | – | – | 1655.5
Crystal, Adiabatic calorimetry | – | 345.94 | –
Metastable crystal, Adiabatic calorimetry | 54.2 | – | –
